From patent publication US20100221274A1, “METHOD OF ADMINISTERING A THYMOSIN ALPHA 1 PEPTIDE” (SCICLONE PHARMACEUTICALS, INC., priority 2001, published 2010)
Peptide text beside a SMILES is read from it.

Experiments:
IL-2 = test: cytokine expression in plasma by ELISA: IL-2, Example 2; type: in vivo, rats; conditions: for plasma level of IL-2: 14 days after TA1
Protocol: (§1) 10 week old rats, weighing 250-300 g, received […] 5-FU for immune suppression.
(§2) 8 days after 5-FU treatment, rats were randomly assigned to one of the following groups (n=15): • Control (saline in minipump) • High dose TA1, injected s.c. at 3.5 mg/Kg (with empty minipumps) • Continuous infusion TA1, provided by minipump at 3.5 mg/Kg/5 days
(§3) Immune parameters were determined at baseline and 8 days after 5-FU treatment (day 1 of TA1 treatment), and also at 5 and 14 days after TA1 treatment.
(§4) The evaluations included total leukocyte number (judged by physical cytofluorimetric parameters, after verifying the specificity by monoclonal antibody), granulocytes (flow cytometry using FITC anti rat granulocyte HIS-48), total lymphocyte number (CD3+ by flow cytometry), T helper lymphocytes (CD4+ by flow cytometry), activated lymphocytes (CD25+CD3+ by flow cytometry), and cytokine expression in plasma (IL-2 and IFN-γ by ELISA).

[1] = system: activated lymphocytes (CD25+CD3+); test: activated lymphocytes (CD25+CD3+ by flow cytometry) in 5-FU immune-suppressed rats, Example 2; type: in vivo
Protocol: as §1, §2, §3, §4

[2] = observation of adverse events in treated rats; type: in vivo
Protocol: as §2

IFN-γ = test: cytokine expression in plasma by ELISA: IFN-γ, Example 2; type: in vivo, rats
Protocol: as §1, §2, §3, §4

[3] = system: activated lymphocytes (CD3+CD25+); test: activated lymphocytes (CD25+CD3+ by flow cytometry) in 5-FU immune-suppressed rats, Example 1; type: in vivo
Protocol: (§5) In the following examples, which are not intended to be limiting, a continuous infusion of TA1 (N-acetyl-[…]OH) (SEQ ID NO:1) was evaluated in a cancer therapy model with the use of surgically implanted osmotic minipumps, which deliver fluids at a constant flow rate for 5 days. Rats were given 5-fluorouracil (5-FU) to cause immune suppression, and then treated with injected or infused TA1 8 days later (the nadir of white cell count after 5-FU). Treatment groups, 8 rats each, were: control (minipumps with saline); low dose TA1 (0.2 mg/Kg sc injection; empty minipumps); high dose TA1 (3.5 mg/Kg sc injection; empty minipumps); and high dose infused TA1 (3.5 mg/Kg infused by minipumps). Immune parameters were determined at baseline and 8 days after 5-FU treatment (day 1 of TA1 treatment), and also at 5, 12, 20, and 27 days after TA1 treatment.
(§6) 10 week old rats, weighing 250-300 g, received 100 mg/kg 5-fluorouracil (5-FU) for immune suppression.
(§7) 8 days after 5-FU treatment, rats were randomly assigned to one of the following groups (n=8): • Control (saline in minipump) • Low dose TA1, injected s.c. at 0.2 mg/Kg (with empty minipumps) • High dose TA1, injected s.c. at 3.5 mg/Kg (with empty minipumps) • Continuous infusion TA1, provided by minipump at 3.5 mg/Kg/5 days
(§8) Immune parameters were determined at baseline and 8 days after 5-FU treatment (day 1 of TA1 treatment), and also at 5, 12, 20, and 27 days after TA1 treatment.
(§9) The evaluations included NK activity (LDH released from YAC-1 cells after 4 h exposure to PBMC), total leukocyte number (judged by physical cytofluorimetric parameters, after verifying the specificity by monoclonal antibody), total lymphocyte number (CD3+ by flow cytometry), and activated lymphocytes (CD25+CD3+ by flow cytometry).

total lymphocytes (CD3+) = test: total lymphocyte number (CD3+ by flow cytometry) in 5-FU immune-suppressed rats, Example 2; type: in vivo
Protocol: as §1, §2, §3, §4

total leukocyte number = test: total white blood cell count in 5-FU immune-suppressed rats, Example 1; type: in vivo
Protocol: as §5, §6, §7, §8, §9

NK activity = NK activity (LDH released from YAC-1 cells after 4 h exposure to PBMC) in 5-FU immune-suppressed rats, Example 1; type: in vivo; conditions: for NK activity: 5 days after TA1 treatment
Protocol: as §5, §6, §7, §8, §9

[4] = system: T helper lymphocytes (CD3+CD4+); test: T helper lymphocytes (CD4+ by flow cytometry) in 5-FU immune-suppressed rats, Example 2; type: in vivo
Protocol: as §1, §2, §3, §4

granulocytes = granulocytes (flow cytometry, HIS-48) in 5-FU immune-suppressed rats, Example 2; type: in vivo
Protocol: as §1, §2, §3, §4

[5] = continuous infusion 3.5 mg/Kg/5 days
[6] = one animal, high dose injection followed by infusion
[7] = continuous infusion by minipump 3.5 mg/Kg/5 days
[8] = high dose injected s.c. 3.5 mg/Kg
[9] = low dose injected s.c. 0.2 mg/Kg

For `CC[C@H](C)[C@H](NC(=O)[C@H](CCC(=O)O)NC(=O)[C@H](CO)NC(=O)[C@H](CO)NC(=O)[C@@H](NC(=O)[C@H](CC(=O)O)NC(=O)[C@@H](NC(=O)[C@H](C)NC(=O)[C@H](C)NC(=O)[C@H](CC(=O)O)NC(=O)[C@H](CO)NC(C)=O)C(C)C)[C@@H](C)O)C(=O)N[C@H](C(=O)N[C@H](C(=O)N[C@@H](CCCCN)C(=O)N[C@@H](CC(=O)O)C(=O)N[C@@H](CC(C)C)C(=O)N[C@@H](CCCCN)C(=O)N[C@@H](CCC(=O)O)C(=O)N[C@@H](CCCCN)C(=O)N[C@@H](CCCCN)C(=O)N[C@@H](CCC(=O)O)C(=O)N[C@H](C(=O)N[C@H](C(=O)N[C@@H](CCC(=O)O)C(=O)N[C@@H](CCC(=O)O)C(=O)N[C@@H](C)C(=O)N[C@@H](CCC(=O)O)C(=O)N[C@@H](CC(N)=O)C(=O)O)C(C)C)C(C)C)[C@@H](C)O)[C@@H](C)O` [TA1] (Ac-SDAAVDTSSEITTKDLKEKKEVVEEAEN-OH), the “plasma level of IL-2” value (IL-2; [5]) was 42 ± 7 pg/mL, the “plasma level of IL-2” value (IL-2; injected TA1 3.5 mg/Kg s.c.) was 21 ± 16 pg/mL and the “plasma level of IL-2 relative to other animals” value (IL-2; one animal, both injection and continuous infusion) was “even greater levels of both of the Th1 cytokines measured”. The activated lymphocytes [1, 5] was 428±89 cells/mm^3, the “percentage of lymphocytes which were activated” value [1, 5] was 4 % of lymphocytes and the activated lymphocytes [1, 6] was 976 cells/mm^3. The “percentage of lymphocytes which were activated” value [1, 6] was 10 % of lymphocytes, the adverse events ([2]; doses of TA1 15 times higher than usual (one animal 30 times higher than usual)) was “No adverse events were observed” and the “adverse events / condition of the animal” value ([2]; one animal, both injection (3.5 mg/Kg) and continuous infusion (another 3.5 mg/Kg)) was “healthy and vigorous, with no obvious adverse events”. The “plasma level of IFN-γ” value (IFN-γ; TA1 by injection 3.5 mg/Kg s.c., 14 days after treatment) was 10 ± 1 pg/mL, the “plasma level of IFN-γ” value (IFN-γ; continuous infusion 3.5 mg/Kg/5 days, 14 days after treatment) was 14 ± 5 pg/mL and the “plasma level of IFN-γ” value (IFN-γ; one animal, both injection and continuous infusion, after 14 days) was 45 pg/mL. The “plasma level of IFN-γ relative to other groups” value (IFN-γ; s.c. injected TA1 3.5 mg/Kg, 5 days after treatment) was “higher plasma levels of IFN-γ”, the “activated lymphocytes (CD3+CD25+)” value ([3]; continuous infusion 3.5 mg/Kg/5 days, 12 days after TA1 treatment) was 422±105 cells/mm^3 and the “activated lymphocytes (CD3+CD25+)” value ([3]; continuous infusion 3.5 mg/Kg/5 days, 20 days after TA1 treatment) was 446±73 cells/mm^3. For the same molecule, the “activated lymphocytes (CD3+CD25+)” value ([3]; high dose injected 3.5 mg/Kg, 12 days after TA1 treatment) was 297±136 cells/mm^3, the “activated lymphocytes (CD3+CD25+)” value ([3]; high dose injected 3.5 mg/Kg, 20 days after TA1 treatment) was 321±75 cells/mm^3 and the “time to recovery of total lymphocytes (CD3+) to baseline levels” value (total lymphocytes (CD3+); [5]) was 5 days. The levels of lymphocytes (total lymphocytes (CD3+); continuous infusion 3.5 mg/Kg/5 days, mean of other animals) was 9,644±961 cells/mm^3, the “time to recovery of total lymphocytes (CD3+) to baseline levels” value (total lymphocytes (CD3+); injected TA1 3.5 mg/Kg s.c.) was 14 days and the levels of lymphocytes (total lymphocytes (CD3+); one animal, both injection and continuous infusion (3.5 mg/Kg each)) was 9,765 cells/mm^3. For the same molecule, the “recovery of total white blood cell count” value (total leukocyte number; [7]) was “statistically significant and complete recovery to baseline levels after only 5 days”, the “recovery of total white blood cell count” value (total leukocyte number; low or high dose TA1 by s.c. injection (0.2 or 3.5 mg/Kg)) was “trended towards a sooner increase in recovery compared to untreated animals” and the “recovery of NK activity” value (NK activity; [7]) was “complete recovery of NK activity to baseline levels”. For the same molecule, the NK activity (NK activity; continuous infusion by minipump 3.5 mg/Kg/5 days, baseline 42±5%) was 32±4%, the “time to significant recovery of NK activity” value (NK activity; [8]) was 5 days and the NK activity (NK activity; [8]) was 16±2%. For the same molecule, the “time to significant recovery of NK activity” value (NK activity; [9]) was 12 days, the NK activity (NK activity; [9]) was 12±3% and the “recovery of T helper cell levels” value ([4]; TA1 by either delivery method (injection or continuous infusion, 3.5 mg/Kg)) was “sufficient to return the levels of T helper cells to baseline”. For the same molecule, the number of granulocytes (granulocytes; TA1 by s.c. injection 3.5 mg/Kg, 5 days) was 9,924±3,218 cells/mm^3, the number of granulocytes (granulocytes; continuous infusion 3.5 mg/Kg/5 days, 5 days) was 14,652±2,463 cells/mm^3 and the “number of granulocytes relative to other groups” value (granulocytes; continuous infusion 3.5 mg/Kg/5 days, after 14 days) was “still the highest”. The number of granulocytes (granulocytes; one animal, both injection (3.5 mg/Kg) and continuous infusion (another 3.5 mg/Kg), after 5 days) was 19,376 cells/mm^3.

For `O=c1[nH]cc(F)c(=O)[nH]1` [5-FU, 5-fluorouracil], the “activated lymphocytes (CD3+CD25+) after 5-FU” value ([3]; 8 days after 100 mg/kg 5-FU, baseline 65±21) was 37±10 cells/mm^3, the “total lymphocytes (CD3+) after 5-FU” value (total lymphocytes (CD3+); 8 days after 100 μg/kg 5-FU, baseline 10,904±1,973) was 1,740±560 cells/mm^3 and the “total white blood cell count after 5-FU” value (total leukocyte number; 8 days after 100 mg/kg 5-FU, baseline 14,590±2,071) was 2,597±582 cells/mm^3. The “NK activity after 5-FU” value (NK activity; 8 days after 100 mg/kg 5-FU, baseline 42±5%) was 9±2%, the “T helper lymphocytes (CD3+CD4+) after 5-FU” value ([4]; 8 days after 100 μg/kg 5-FU, baseline 5,411±1,084) was 1,710±449 cells/mm^3 and the “number of granulocytes after 5-FU” value (granulocytes; 8 days after 100 μg/kg 5-FU, baseline 4,485±1,116) was 1,249±432 cells/mm^3.
